Consider two compounds from US7829565B2, “Indole derivatives as serotonin reuptake inhibitors” (Merck Patent GmbH, priority 2003, dated 2010).

One assay has as its target T1, 5-HT1A receptors (Rattus norvegicus, UniProt P19327).
T1 construct: from tissue; host or cells: hippocampus (membranes)
T1 sequence (P19327 1-422): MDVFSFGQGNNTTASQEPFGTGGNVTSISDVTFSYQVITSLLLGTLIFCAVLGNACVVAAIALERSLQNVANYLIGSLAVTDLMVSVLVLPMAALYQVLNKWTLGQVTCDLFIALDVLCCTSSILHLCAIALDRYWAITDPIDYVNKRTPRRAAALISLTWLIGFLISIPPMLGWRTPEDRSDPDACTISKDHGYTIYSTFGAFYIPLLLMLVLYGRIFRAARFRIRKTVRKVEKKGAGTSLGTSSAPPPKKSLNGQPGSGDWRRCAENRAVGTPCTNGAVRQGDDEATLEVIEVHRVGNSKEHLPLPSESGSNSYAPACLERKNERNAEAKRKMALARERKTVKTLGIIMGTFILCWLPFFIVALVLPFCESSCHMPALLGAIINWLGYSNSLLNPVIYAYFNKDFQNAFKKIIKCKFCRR
Kind of assay: 5-HT1A receptor binding test. The source says: (§1) In particular, they inhibit 5-HT reuptake. […] Due to a 5-HT-agonistic action and 5-HT reuptake inhibition, serotonin remains in the synaptic cleft for longer and the serotonin action is reinforced. Active ingredients having such properties are therefore particularly suitable as antidepressants and anxiolytics. The compounds of the formula I inhibit the binding of tritiated serotonin ligands to hippocampal receptors (Cossery et al., European J. Pharmacol. 140 (1987), 143-155) and synaptosomal serotonin reuptake (Sherman et al., Life Sci. 23 (1978), 1863-1870).
The 5-HT1A-agonistic action can be measured in vitro, for example, with the aid of the (serotonin) binding test, as described by Matzen et al. (J. Med. Chem., 43 (2000), 1149-57), in particular on page 1156 with reference to Eur. J. Pharmacol., 140 (1987), 143-155. In addition, the 5-HT1A-agonistic action can be measured with the aid of the GTPgammaS test described by Newman-Tancredi et al. (Eur. J. Pharmacol. 307 (1996), 107-11).
Many of the compounds synthesised have nanomolar affinity to the 5-HT1A receptors and nanomolar reuptake inhibition of serotonin. • 5-{4-[4-(5-Cyano-2-oxo-2,3-dihydro-1H-indol-3-yl)butyl]piperazin-1-yl}-benzofuran-2-carboxamide

The next assay has as its target T2, serotonin reuptake (Rattus norvegicus, UniProt P31652).
T2 construct: synaptosomal serotonin reuptake (Sherman et al., Life Sci. 23 (1978), 1863-1870); from tissue
Put plainly: serotonin reuptake inhibition (SSRI). The format is biochemical.
Excerpt: as §1
For in-vitro determination of 5-HT reuptake inhibition, synaptosomal reuptake inhibition (Wong et al., Neuropsycho-pharmacology 8 (1993), 22-33) and p-chloroamphetamine antagonism (Fuller et al. J. Pharmacol. Exp. Ther. 212 (1980), 115-119) is measured. Serotonin reuptake inhibition can in addition also be investigated with the aid of the Waldmeier method ex vivo in the brain tissue of mice (European J. Pharmacol. 1977, 46, 387-92), and by microdialysis, which is described by DiChiara (Trends in Pharmacol. Sci., 11 (1990), 116-121). To this end, a physiological solution is perfused through a microdialysis container implanted into a rat brain. During this perfusion, the solution takes up the neurotransmitters liberated in the brain and is subsequently analysed. […]

T2 sequence (P31652 whole entry): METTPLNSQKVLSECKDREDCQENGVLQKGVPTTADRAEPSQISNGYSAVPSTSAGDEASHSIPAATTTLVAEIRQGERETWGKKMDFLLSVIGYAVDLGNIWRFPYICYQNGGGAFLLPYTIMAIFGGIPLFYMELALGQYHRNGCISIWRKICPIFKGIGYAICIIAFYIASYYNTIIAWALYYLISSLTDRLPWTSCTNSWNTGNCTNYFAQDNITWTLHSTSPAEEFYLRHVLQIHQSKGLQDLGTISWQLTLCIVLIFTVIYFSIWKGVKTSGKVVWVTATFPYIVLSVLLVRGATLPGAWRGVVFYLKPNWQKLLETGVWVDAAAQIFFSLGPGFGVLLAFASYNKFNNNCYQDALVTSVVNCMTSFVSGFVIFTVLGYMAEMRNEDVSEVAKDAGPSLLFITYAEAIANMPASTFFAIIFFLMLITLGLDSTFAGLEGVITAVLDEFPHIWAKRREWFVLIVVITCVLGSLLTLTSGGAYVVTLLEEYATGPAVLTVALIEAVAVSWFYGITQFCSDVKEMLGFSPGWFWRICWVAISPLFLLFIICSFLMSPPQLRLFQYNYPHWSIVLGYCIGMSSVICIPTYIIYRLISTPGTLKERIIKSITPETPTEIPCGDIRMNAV

Take `N#Cc1ccc2c(c1)C(CCCCN1CCN(c3ccc4oc(C(N)=O)cc4c3)CC1)C(=O)N2` (stereo not shown) [5-{4-[4-(5-cyano-2-oxo-2,3-dihydro-1H-indol-3-yl)butyl]-piperazin-1-yl}benzofuran-2-carboxamide]: the half-maximal inhibitory concentration (IC50) at 5-HT1A receptors turned out to be 1.7 nM; against serotonin reuptake it was 2.9 nM.
The corresponding values for `N#Cc1cc2c(CCCCN3CCN(c4ccc5oc(C(N)=O)cc5c4)CC3)c[nH]c2cc1O` [5-{4-[4-(5-cyano-6-hydroxy-1H-indol-3-yl)butyl]piperazin-1-yl}-benzofuran-2-carboxamide] are 18 nM and 2.7 nM.
